# In PMC6409085, “Three odorant-binding proteins are involved in the behavioral response of Sogatella furcifera to rice plant volatiles” (PeerJ, 2019):
# Values joined by “and” are separate entries in the source; they are usually repeats but may differ in a detail not shown here. Equal values may be shown once.
# Legend:
# [1] = target: SfurOBP1 (Sogatella furcifera, UniProt V5T8N5); assay: biochemical; format: binding; details: for Fluorescence competitive binding assay, fluorescence intensity: OBP1, three replicate columns
# How it was run: (§1)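 First, 2.0 µM protein in 50 mM Tris-HCl (pH 7.4) was titrated with 1-NPN to obtain K1-NPN. Then odorants (2–20 µM final) competed against 2.0 µM 1-NPN, with fluorescence (ex 337 nm) recorded after 2 min. Ki was computed from IC50 via Ki = IC50/(1 + [1-NPN]/K1-NPN).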
# [2] = target: SfurOBP11 (Sogatella furcifera, UniProt V5T6E3); assay: biochemical; format: binding
# How it was run: as §1
# [3] = target: SfurOBP2 (Sogatella furcifera, UniProt V5T759); assay: biochemical; format: binding
# How it was run: as §1
# [4] = target: SfurOBP3 (Sogatella furcifera, UniProt V5T818); assay: biochemical; format: binding; details: for Fluorescence competitive binding assay, fluorescence intensity: OBP3, three replicate columns
# How it was run: as §1
# [5] = tested on: S. furcifera adults; assay: Y-tube olfactometer behavioral trials; format: in vivo, Sogatella furcifera; details: odorant 50 µL/L vs hexane; adults
# Procedure: To test the effect of the rice odorants on the behavior of S. furcifera adults, a glass Y-tube olfactometer (inner diameter 2.0 cm, stem 13 cm, arms 10 cm, angle of arms 60°) according to the previously described ([Wang et al., 2014b]) was employed. An airtight cubic box (70 by 45 by 30 cm) was used to position Y-tube, and the Y-tube was lighted by a 30-W filament lamp 25 cm above it. Air that filtered through activated charcoal and humidified with doubly distilled water was pumped in both arms at a flow rate of 300 mL/min. Two filter paper strips (10 by 1 cm) containing 100 µL odorant source (50 µL/L) and 100 µL control hexane were placed in two holding chambers in the front of the olfactometer, respectively. A S. furcifera adult (2 days after emergence, starved for 0.5 h) was randomly chosen and placed in the stem of the Y-tube. Each insect was given 10 min to choose between the two arms of the Y-tube, the choice was noted if the planthopper reached one-half of the arms’ lengths and stayed in the arm for more than 1 min. Besides, S. furcifera was considered as having no orientation preference. Forty-five individuals were used for each compound, each insect used only once. And the dual-choice experiment was done in an environmentally controlled room (25 ± 1 °C and 50% RH). A Chi-squared test was used to analyze the behavioral assay data by using SPSS19.0 (SPSS Inc., Chicago, IL, USA) software.
# Chain of SfurOBP1 (V5T8N5 entry or part of it): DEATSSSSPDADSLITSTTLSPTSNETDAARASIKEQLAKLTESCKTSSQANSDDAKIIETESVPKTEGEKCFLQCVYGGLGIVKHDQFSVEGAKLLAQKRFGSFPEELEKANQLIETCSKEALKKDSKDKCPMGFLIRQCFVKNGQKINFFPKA
# Chain of SfurOBP11 (V5T6E3 entry or part of it): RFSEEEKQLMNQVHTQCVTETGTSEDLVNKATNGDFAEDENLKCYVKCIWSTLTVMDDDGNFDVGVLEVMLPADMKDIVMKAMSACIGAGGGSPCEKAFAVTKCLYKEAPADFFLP
# Chain of SfurOBP3 (V5T818 entry or part of it): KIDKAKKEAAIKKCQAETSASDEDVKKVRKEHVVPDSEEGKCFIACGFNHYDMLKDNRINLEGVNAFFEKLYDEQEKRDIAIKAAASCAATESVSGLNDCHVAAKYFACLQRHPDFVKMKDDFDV
# Chain of SfurOBP2 (V5T759 entry or part of it): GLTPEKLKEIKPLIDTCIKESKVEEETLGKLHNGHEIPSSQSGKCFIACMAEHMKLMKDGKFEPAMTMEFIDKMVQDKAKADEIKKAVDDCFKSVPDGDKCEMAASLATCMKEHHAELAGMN
compound,measurement,setting,value
CCCCCCC=CCO [2-nonen-1-ol],"Fluorescence competitive binding assay, fluorescence intensity",[1]; ligand concentration 2 (μM),6522 and 6473 and 6498
same,"Fluorescence competitive binding assay, fluorescence intensity",[1]; ligand concentration 4 (μM),5655 and 6432 and 6908
same,"Fluorescence competitive binding assay, fluorescence intensity",[1]; ligand concentration 6 (μM),8453 and 7604 and 7714
same,"Fluorescence competitive binding assay, fluorescence intensity",[1]; ligand concentration 8 (μM),8297 and 7919 and 6967
same,"Fluorescence competitive binding assay, fluorescence intensity",[1]; ligand concentration 10 (μM),6386 and 8717 and 6918
same,"Fluorescence competitive binding assay, fluorescence intensity",[1]; ligand concentration 12 (μM),6193 and 7108 and 6694
same,"Fluorescence competitive binding assay, fluorescence intensity",[1]; ligand concentration 14 (μM),6199 and 6820 and 8443
same,"Fluorescence competitive binding assay, fluorescence intensity",[1]; ligand concentration 16 (μM),5457 and 5916 and 5787
same,"Fluorescence competitive binding assay, fluorescence intensity",[1]; ligand concentration 18 (μM),6097 and 9706 and 8104
same,"Fluorescence competitive binding assay, fluorescence intensity",[1]; ligand concentration 20 (μM),6801 and 6290 and 6295
same,IC50,"[1]; SfurOBP1, protein and 1-NPN both 2.0 µM, competitor 2-20 µM, read-out: IC50",> 20 µM
same,IC50,"[2]; SfurOBP11, protein and 1-NPN both 2.0 µM, competitor 2-20 µM, read-out: IC50",> 20 µM
same,"Fluorescence intensity, fluorescence competitive binding assay, OBP11","[2]; ligand concentration 2, replicate 1",37643
same,"Fluorescence intensity, fluorescence competitive binding assay, OBP11","[2]; ligand concentration 2, replicate 2",35290
same,"Fluorescence intensity, fluorescence competitive binding assay, OBP11","[2]; ligand concentration 2, replicate 3",44360
same,"Fluorescence intensity, fluorescence competitive binding assay, OBP11","[2]; ligand concentration 4, replicate 1",35859
same,"Fluorescence intensity, fluorescence competitive binding assay, OBP11","[2]; ligand concentration 4, replicate 2",39342
same,"Fluorescence intensity, fluorescence competitive binding assay, OBP11","[2]; ligand concentration 4, replicate 3",34938
same,"Fluorescence intensity, fluorescence competitive binding assay, OBP11","[2]; ligand concentration 6, replicate 1",34140
same,"Fluorescence intensity, fluorescence competitive binding assay, OBP11","[2]; ligand concentration 6, replicate 2",38169
same,"Fluorescence intensity, fluorescence competitive binding assay, OBP11","[2]; ligand concentration 6, replicate 3",36155
same,"Fluorescence intensity, fluorescence competitive binding assay, OBP11","[2]; ligand concentration 8, replicate 1",32705
same,"Fluorescence intensity, fluorescence competitive binding assay, OBP11","[2]; ligand concentration 8, replicate 2",34472
same,"Fluorescence intensity, fluorescence competitive binding assay, OBP11","[2]; ligand concentration 8, replicate 3",34378
same,"Fluorescence intensity, fluorescence competitive binding assay, OBP11","[2]; ligand concentration 10, replicate 1",32486
same,"Fluorescence intensity, fluorescence competitive binding assay, OBP11","[2]; ligand concentration 10, replicate 2",33152
same,"Fluorescence intensity, fluorescence competitive binding assay, OBP11","[2]; ligand concentration 10, replicate 3",33818
same,"Fluorescence intensity, fluorescence competitive binding assay, OBP11","[2]; ligand concentration 12, replicate 1",28113
same,"Fluorescence intensity, fluorescence competitive binding assay, OBP11","[2]; ligand concentration 12, replicate 2",29890
same,"Fluorescence intensity, fluorescence competitive binding assay, OBP11","[2]; ligand concentration 12, replicate 3",30957
same,"Fluorescence intensity, fluorescence competitive binding assay, OBP11","[2]; ligand concentration 14, replicate 1",27880
same,"Fluorescence intensity, fluorescence competitive binding assay, OBP11","[2]; ligand concentration 14, replicate 2",28227
same,"Fluorescence intensity, fluorescence competitive binding assay, OBP11","[2]; ligand concentration 14, replicate 3",28574
same,"Fluorescence intensity, fluorescence competitive binding assay, OBP11","[2]; ligand concentration 16, replicate 1",24059
same,"Fluorescence intensity, fluorescence competitive binding assay, OBP11","[2]; ligand concentration 16, replicate 2",25490
same,"Fluorescence intensity, fluorescence competitive binding assay, OBP11","[2]; ligand concentration 16, replicate 3",25182
same,"Fluorescence intensity, fluorescence competitive binding assay, OBP11","[2]; ligand concentration 18, replicate 1",30643
same,"Fluorescence intensity, fluorescence competitive binding assay, OBP11","[2]; ligand concentration 18, replicate 2",29725
same,"Fluorescence intensity, fluorescence competitive binding assay, OBP11","[2]; ligand concentration 18, replicate 3",31591
same,"Fluorescence intensity, fluorescence competitive binding assay, OBP11","[2]; ligand concentration 20, replicate 1",30015
same,"Fluorescence intensity, fluorescence competitive binding assay, OBP11","[2]; ligand concentration 20, replicate 2",28576
same,"Fluorescence intensity, fluorescence competitive binding assay, OBP11","[2]; ligand concentration 20, replicate 3",24669
same,IC50,"[3]; SfurOBP2, protein and 1-NPN both 2.0 µM, competitor 2-20 µM, read-out: IC50",> 20 µM
same,"Fluorescence competitive binding assay, OBP2 (raw fluorescence reading)","[3]; ligand concentration 2 (unit not given), replicate column 1 of 3",23899
same,"Fluorescence competitive binding assay, OBP2 (raw fluorescence reading)","[3]; ligand concentration 2 (unit not given), replicate column 2 of 3",21462
same,"Fluorescence competitive binding assay, OBP2 (raw fluorescence reading)","[3]; ligand concentration 2 (unit not given), replicate column 3 of 3",22264
same,"Fluorescence competitive binding assay, OBP2 (raw fluorescence reading)","[3]; ligand concentration 4 (unit not given), replicate column 1 of 3",25374
same,"Fluorescence competitive binding assay, OBP2 (raw fluorescence reading)","[3]; ligand concentration 4 (unit not given), replicate column 2 of 3",25147
same,"Fluorescence competitive binding assay, OBP2 (raw fluorescence reading)","[3]; ligand concentration 4 (unit not given), replicate column 3 of 3",24357
same,"Fluorescence competitive binding assay, OBP2 (raw fluorescence reading)","[3]; ligand concentration 6 (unit not given), replicate column 1 of 3",25139
same,"Fluorescence competitive binding assay, OBP2 (raw fluorescence reading)","[3]; ligand concentration 6 (unit not given), replicate column 2 of 3",24429
same,"Fluorescence competitive binding assay, OBP2 (raw fluorescence reading)","[3]; ligand concentration 6 (unit not given), replicate column 3 of 3",24096
same,"Fluorescence competitive binding assay, OBP2 (raw fluorescence reading)","[3]; ligand concentration 8 (unit not given), replicate column 1 of 3",22380
same,"Fluorescence competitive binding assay, OBP2 (raw fluorescence reading)","[3]; ligand concentration 8 (unit not given), replicate column 2 of 3",22288
same,"Fluorescence competitive binding assay, OBP2 (raw fluorescence reading)","[3]; ligand concentration 8 (unit not given), replicate column 3 of 3",21248
same,"Fluorescence competitive binding assay, OBP2 (raw fluorescence reading)","[3]; ligand concentration 10 (unit not given), replicate column 1 of 3",20934
same,"Fluorescence competitive binding assay, OBP2 (raw fluorescence reading)","[3]; ligand concentration 10 (unit not given), replicate column 2 of 3",21198
same,"Fluorescence competitive binding assay, OBP2 (raw fluorescence reading)","[3]; ligand concentration 10 (unit not given), replicate column 3 of 3",20778
same,"Fluorescence competitive binding assay, OBP2 (raw fluorescence reading)","[3]; ligand concentration 12 (unit not given), replicate column 1 of 3",19074
same,"Fluorescence competitive binding assay, OBP2 (raw fluorescence reading)","[3]; ligand concentration 12 (unit not given), replicate column 2 of 3",19350
same,"Fluorescence competitive binding assay, OBP2 (raw fluorescence reading)","[3]; ligand concentration 12 (unit not given), replicate column 3 of 3",18397
same,"Fluorescence competitive binding assay, OBP2 (raw fluorescence reading)","[3]; ligand concentration 14 (unit not given), replicate column 1 of 3",16875
same,"Fluorescence competitive binding assay, OBP2 (raw fluorescence reading)","[3]; ligand concentration 14 (unit not given), replicate column 2 of 3",19948
same,"Fluorescence competitive binding assay, OBP2 (raw fluorescence reading)","[3]; ligand concentration 14 (unit not given), replicate column 3 of 3",17641
same,"Fluorescence competitive binding assay, OBP2 (raw fluorescence reading)","[3]; ligand concentration 16 (unit not given), replicate column 1 of 3",16016
same,"Fluorescence competitive binding assay, OBP2 (raw fluorescence reading)","[3]; ligand concentration 16 (unit not given), replicate column 2 of 3",16681
same,"Fluorescence competitive binding assay, OBP2 (raw fluorescence reading)","[3]; ligand concentration 16 (unit not given), replicate column 3 of 3",14367
same,"Fluorescence competitive binding assay, OBP2 (raw fluorescence reading)","[3]; ligand concentration 18 (unit not given), replicate column 1 of 3",17119
same,"Fluorescence competitive binding assay, OBP2 (raw fluorescence reading)","[3]; ligand concentration 18 (unit not given), replicate column 2 of 3",16819
same,"Fluorescence competitive binding assay, OBP2 (raw fluorescence reading)","[3]; ligand concentration 18 (unit not given), replicate column 3 of 3",15979
same,"Fluorescence competitive binding assay, OBP2 (raw fluorescence reading)","[3]; ligand concentration 20 (unit not given), replicate column 1 of 3",16047
same,"Fluorescence competitive binding assay, OBP2 (raw fluorescence reading)","[3]; ligand concentration 20 (unit not given), replicate column 2 of 3",15694
same,"Fluorescence competitive binding assay, OBP2 (raw fluorescence reading)","[3]; ligand concentration 20 (unit not given), replicate column 3 of 3",13725
same,"Fluorescence competitive binding assay, fluorescence intensity",[4]; ligand concentration 2,69777 and 64977 and 64069
same,"Fluorescence competitive binding assay, fluorescence intensity",[4]; ligand concentration 4,69897 and 66654 and 59281
same,"Fluorescence competitive binding assay, fluorescence intensity",[4]; ligand concentration 6,72805 and 63593 and 63408
same,"Fluorescence competitive binding assay, fluorescence intensity",[4]; ligand concentration 8,68908 and 64822 and 61456
same,"Fluorescence competitive binding assay, fluorescence intensity",[4]; ligand concentration 10,63843 and 54968 and 55110
same,"Fluorescence competitive binding assay, fluorescence intensity",[4]; ligand concentration 12,59021 and 51372 and 52724
same,"Fluorescence competitive binding assay, fluorescence intensity",[4]; ligand concentration 14,52703 and 46147 and 50940
same,"Fluorescence competitive binding assay, fluorescence intensity",[4]; ligand concentration 16,47036 and 45518 and 44907
same,"Fluorescence competitive binding assay, fluorescence intensity",[4]; ligand concentration 18,49989 and 48773 and 43710
same,"Fluorescence competitive binding assay, fluorescence intensity",[4]; ligand concentration 20,40319 and 40656 and 42300
same,IC50,"[4]; SfurOBP3, protein and 1-NPN both 2.0 µM, competitor 2-20 µM, read-out: IC50",> 20 µM
same,number of insects choosing hexane arm,[5],12
same,number of insects choosing volatilies arm,[5],18
same,number of insects failed (no choice),[5],10
